According to patent US20250136607A1 (REGOR PHARMACEUTICALS, INC., priority 2021, published 2025):

How the values were obtained:
[1] = test system: Citrullinated Histone H3 in dHL-60 cells (differentiated HL-60); assay: dHL-60 Cit-H3 ELISA assay; type: cell-based, human; conditions: Homo sapiens, HL-60, 3 h, stimulation with 25 μM A23187 for 3 h, read-out: Average IC50 Abs
Protocol: Cell culture: HL-60 cells were grown in IMDM+20% FBS+1% PS. The suspension cells were split into 1:5 with fresh media every 2-3 days to maintain cell density between 1×10^5 to 1×10^6 viable cells/mL. HL-60 cells differentiation: HL-60 cells were diluted to 1×10^5 cells/mL and differentiated into neutrophil-like cells with 100 mM DMF treatment for 72 hours in flask at 37° C., 5% CO2. dHL-60 Cells plating: • 1) HL-60 cells were collected, and the plate was centrifuged at 1000 rpm for 5 min. • 2) The HL-60 cells were diluted to 1.25×10^6 cells/mL and plated into a 96-well plate with 80 μL/well (i.e., 1×10^5/well). The plate was then incubated in the incubator (5% CO2, 37° C.) for 30 min to allow cells to adhere. Compound treatment: • 1) Preparation of compound serial dilution (source plate 500×, final DMSO concentration: 0.2%): briefly, compounds were dissolved in 100% DMSO to a concentration of 20 mM (the stock solution) and a 3-fold serial dilution with 8-point doses was performed. • 2) A 10× compound solution was pipetted up and down; and 10 μL/well of compounds were added into each well and incubated for 30 min. Stimulation with 25 μM A23187: • 1) A solution of A23187 (250 μM) in complete IMDM (IMDM+10% FBS+1% PS) containing 150 U/mL S7 Nuclease was prepared. The obtained solution was added 10 μL/well into each well and incubated for 3 h in the incubator (5% CO2, 37° C.). • 2) The dHL-60 cells treated with 10 μL/well complete IMDM without A23187 worked as negative control. Sample preparation: • 1) EDTA (0.5 M, 2 μL/well) were added to all the wells to stop the reaction. • 2) The plate was centrifuged at 1000 rpm for 5 min to collect supernatant. • 3) The supernatant was then diluted at least 1:2 before adding to the ELISA plate for citrullinated H3 analysis.
The standard was reconstituted with 2 mL of Assay buffer to 500 ng/mL. The reconstituted standard was relatively unstable at 4° C. and should be used within 3 hr after reconstitution.
• 1) 100 μL of the standards or diluted samples were added to the wells on the ELISA plate. • 2) The plate was covered with Cover Sheet and incubated for 2 h at room temperaturert on an orbital shaker.
On the day of the assay, the reagent was thawed at room temperaturert. For one plate, 1.2 mL of HRP Conjugate were diluted into 10.8 mL of assay buffer. A diluted HRP Conjugate was prepared shortly before use.
• 1) The wells were empties and rinsed four times with 1× wash buffer with 300 μL/well (Low speed). The plate was inverted between wash steps to empty the plate. After the last wash, the inverted plate was gently tapped on absorbent paper to remove the residual wash buffer. • 2) 100 μL of the HRP Conjugate working solution were added to each well of the plate. • 3) The plate was covered with cover sheet and incubated for 1 h at RT on an orbital shaker.
• 1) The wells were empties and rinsed four times with 1× wash buffer with 300 μL/well (low speed). The plate was inverted between wash steps to empty the plate. […] 100 uL of HRP STOP solution were added to each well of the plate.
• 1) Wipe the bottom of the plate with a clean tissue to remove fingerprints, dirt, etc. • 2) Read the plate at a wavelength of 450 nm.
The percent (%) inhibition at each concentration of compound was calculated based on and relative to the signal in the HPE and ZPE wells contained within each assay plate. The HPE wells worked as […], and the ZPE wells didn't contain any compound but rather DMSO (final concentration=0.1%) as […]. The concentrations and % inhibition values for tested compounds were plotted and the concentration of compound required for 50% inhibition (IC50) was determined with a Four-parameter logistic dose response equation. The endpoint value (IC50) for the reference peptide/compound was evaluated in each experiment as a quality control measure. If the endpoint value is within 3-fold of the expected value then the experiment is deemed acceptable. […]

[2] = molecular target: Protein arginine deiminase 4 (PAD4) (Homo sapiens, UniProt Q9UM07); assay: PAD4 ammonia release assay; type: biochemical; conditions: PAD4 ammonia release assay, BAEE substrate, 60 min at RT; read-out: Average IC50 Abs
Summary of the method: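 Ammonia release from BAEE substrate (2× mix 600 μM) was measured after 60 min at RT, following 15 min enzyme–compound preincubation (PAD4 2× 20 nM; pH 8.0 HEPES, 2 mM CaCl2, TCEP; 1.25% DMSO). Detection used OPA/DTT/EDTA for 120 min. % inhibition was taken versus reference-compound and DMSO controls; IC50 by four-parameter logistic fit.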

Sequence of Protein arginine deiminase 4 (PAD4) (Q9UM07 whole entry): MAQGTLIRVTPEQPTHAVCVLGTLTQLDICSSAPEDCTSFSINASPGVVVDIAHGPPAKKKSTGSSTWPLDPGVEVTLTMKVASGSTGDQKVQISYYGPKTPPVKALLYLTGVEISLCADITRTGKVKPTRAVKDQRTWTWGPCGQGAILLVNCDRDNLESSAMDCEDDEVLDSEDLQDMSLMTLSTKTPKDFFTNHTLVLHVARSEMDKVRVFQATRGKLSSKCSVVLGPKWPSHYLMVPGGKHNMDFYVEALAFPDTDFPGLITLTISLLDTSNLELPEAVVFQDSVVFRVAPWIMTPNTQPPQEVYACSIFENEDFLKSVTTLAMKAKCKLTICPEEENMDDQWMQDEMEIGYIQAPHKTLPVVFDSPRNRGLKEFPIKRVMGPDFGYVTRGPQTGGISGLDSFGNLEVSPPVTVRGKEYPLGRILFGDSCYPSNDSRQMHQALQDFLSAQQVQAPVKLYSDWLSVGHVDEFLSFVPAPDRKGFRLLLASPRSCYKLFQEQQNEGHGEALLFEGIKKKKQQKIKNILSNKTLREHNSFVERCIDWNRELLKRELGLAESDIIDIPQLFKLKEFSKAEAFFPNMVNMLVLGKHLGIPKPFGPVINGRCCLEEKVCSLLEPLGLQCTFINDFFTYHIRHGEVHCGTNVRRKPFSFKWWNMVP

IC50 [1] [nM] | IC50 [2] [nM] | SMILES
100 to 500 | ≤ 100 | COc1cc(C(=O)N2C[C@H](N)C[C@@H](F)C2)cc2nc(-c3cc4cccc5c4n3CCN5CCCO)n(Cc3cccs3)c12 [Example 37, ((3R,5R)-3-amino-5-fluoropiperidin-1-yl)(2-(1-(3-hydroxypropyl)-2,3-dihydro-1H-pyrrolo[1,2,3-de]quinoxalin-5-yl)-7-methoxy-1-(thiophen-2-ylmethyl)-1H-benzo[d]imidazol-5-yl)methanone]
500 to 5000 | ≤ 100 | CCn1cc(Cn2c(-c3cc4cccc5c4n3CCN5CCCO)nc3cc(C(=O)N4C[C@H](N)C[C@@H](F)C4)cc(F)c32)cn1 [Example 38, ((3R,5R)-3-amino-5-fluoropiperidin-1-yl)(1-((1-ethyl-1H-pyrazol-4-yl)methyl)-7-fluoro-2-(1-(3-hydroxypropyl)-2,3-dihydro-1H-pyrrolo[1,2,3-de]quinoxalin-5-yl)-1H-benzo[d]imidazol-5-yl)methanone]
500 to 5000 | 100 to 500 | CCn1cc(Cn2c(-c3cc4cccc5c4n3CCN5)nc3cc(C(=O)N4C[C@H](N)C[C@@H](F)C4)cc(F)c32)cn1 [Example 40, ((3R,5R)-3-amino-5-fluoropiperidin-1-yl)(2-(2,3-dihydro-1H-pyrrolo[1,2,3-de]quinoxalin-5-yl)-1-((1-ethyl-1H-pyrazol-4-yl)methyl)-7-fluoro-1H-benzo[d]imidazol-5-yl)methanone]
500 to 5000 | 100 to 500 | CCn1cc(Cn2c(-c3cc4cccc5c4n3CCN5CCCO)nc3cc(C(=O)N4C[C@H]5CC[C@@H]4[C@@H]5N)cc(F)c32)cn1 [Example 42, ((1R,4R,7R)-7-amino-2-azabicyclo[2.2.1]heptan-2-yl)(1-((1-ethyl-1H-pyrazol-4-yl)methyl)-7-fluoro-2-(1-(3-hydroxypropyl)-2,3-dihydro-1H-pyrrolo[1,2,3-de]quinoxalin-5-yl)-1H-benzo[d]imidazol-5-yl)methanone]
500 to 5000 | ≤ 100 | COc1cc(C(=O)N2C[C@H](N)C[C@@H](F)C2)cc2nc(-c3cc4cccc5c4n3CCN5CCCO)n(Cc3cnn(C)c3)c12 [Example 43, ((3R,5R)-3-amino-5-fluoropiperidin-1-yl)(2-(1-(3-hydroxypropyl)-2,3-dihydro-1H-pyrrolo[1,2,3-de]quinoxalin-5-yl)-7-methoxy-1-((1-methyl-1H-pyrazol-4-yl)methyl)-1H-benzo[d]imidazol-5-yl)methanone]
500 to 5000 | 100 to 500 | COc1cc(C(=O)N2CCC[C@@H](N)C2)cc2nc(-c3cc4cccc5c4n3CCN5CCCO)n(Cc3cnn(C)c3)c12 [Example 44, (R)-(3-aminopiperidin-1-yl)(2-(1-(3-hydroxypropyl)-2,3-dihydro-1H-pyrrolo[1,2,3-de]quinoxalin-5-yl)-7-methoxy-1-((1-methyl-1H-pyrazol-4-yl)methyl)-1H-benzo[d]imidazol-5-yl)methanone]
500 to 5000 | ≤ 100 | Cn1cc(Cn2c(-c3cc4cccc5c4n3CCN5CCCO)nc3cc(C(=O)N4C[C@@H](N)C[C@H](F)C4)cc(F)c32)cn1 [Example 46, ((3S,5S)-3-amino-5-fluoropiperidin-1-yl)(7-fluoro-2-(1-(3-hydroxypropyl)-2,3-dihydro-1H-pyrrolo[1,2,3-de]quinoxalin-5-yl)-1-((1-methyl-1H-pyrazol-4-yl)methyl)-1H-benzo[d]imidazol-5-yl)methanone]
500 to 5000 | 100 to 500 | CCn1cc(Cn2c(-c3cc4cccc5c4n3CCN5CC(F)(F)F)nc3cc(C(=O)N4C[C@H](N)C[C@@H](F)C4)cc(F)c32)cn1 [Example 47, ((3R,5R)-3-amino-5-fluoropiperidin-1-yl)(1-((1-ethyl-1H-pyrazol-4-yl)methyl)-7-fluoro-2-(1-(2,2,2-trifluoroethyl)-2,3-dihydro-1H-pyrrolo[1,2,3-de]quinoxalin-5-yl)-1H-benzo[d]imidazol-5-yl)methanone]
